Measurements as given in publication PMC10882719 (Frontiers in Neuroscience, 2024).
Like-named read-outs stand apart in the source and are kept apart here.

What was measured:
Assay type in all cases: cell-based
[1] = target: T1, 168 GPCRs (Homo sapiens, UniProt O95838); details: GLP2R
T1 construct: host or cells: PathHunter cell lines
T1 sequence (O95838 1-553): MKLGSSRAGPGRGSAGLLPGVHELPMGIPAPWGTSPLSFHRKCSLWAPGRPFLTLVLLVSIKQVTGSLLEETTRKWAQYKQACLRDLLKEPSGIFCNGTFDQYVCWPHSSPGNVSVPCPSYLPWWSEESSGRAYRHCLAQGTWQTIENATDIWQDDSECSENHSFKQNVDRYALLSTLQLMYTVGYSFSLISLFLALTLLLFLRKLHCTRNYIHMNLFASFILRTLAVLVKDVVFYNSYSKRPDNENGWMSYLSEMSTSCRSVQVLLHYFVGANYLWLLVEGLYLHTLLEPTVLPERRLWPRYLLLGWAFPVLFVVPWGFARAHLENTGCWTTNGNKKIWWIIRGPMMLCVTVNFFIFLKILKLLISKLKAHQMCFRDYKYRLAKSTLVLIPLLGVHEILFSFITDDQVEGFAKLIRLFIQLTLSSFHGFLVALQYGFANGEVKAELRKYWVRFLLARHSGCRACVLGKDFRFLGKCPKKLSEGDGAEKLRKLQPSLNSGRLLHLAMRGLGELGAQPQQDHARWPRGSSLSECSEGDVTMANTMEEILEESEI

[2] = target: T2, 168 GPCRs (Homo sapiens, UniProt P43119); details: PTGIR
T2 construct: host or cells: PathHunter cell lines
T2 sequence (P43119 whole entry): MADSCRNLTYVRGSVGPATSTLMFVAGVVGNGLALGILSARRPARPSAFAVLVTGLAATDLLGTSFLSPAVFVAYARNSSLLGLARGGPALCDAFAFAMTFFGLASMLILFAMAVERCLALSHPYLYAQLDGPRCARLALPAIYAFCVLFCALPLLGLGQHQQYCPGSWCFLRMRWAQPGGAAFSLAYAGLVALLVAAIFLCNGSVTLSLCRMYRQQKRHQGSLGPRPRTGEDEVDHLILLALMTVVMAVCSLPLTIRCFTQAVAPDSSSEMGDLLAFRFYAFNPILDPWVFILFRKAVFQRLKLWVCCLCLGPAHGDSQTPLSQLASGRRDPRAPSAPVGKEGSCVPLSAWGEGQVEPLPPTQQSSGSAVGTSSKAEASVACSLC

[3] = target: T3, 168 GPCRs (Homo sapiens, UniProt P30550); details: GRPR
T3 construct: host or cells: PathHunter cell lines
T3 sequence (P30550 whole entry): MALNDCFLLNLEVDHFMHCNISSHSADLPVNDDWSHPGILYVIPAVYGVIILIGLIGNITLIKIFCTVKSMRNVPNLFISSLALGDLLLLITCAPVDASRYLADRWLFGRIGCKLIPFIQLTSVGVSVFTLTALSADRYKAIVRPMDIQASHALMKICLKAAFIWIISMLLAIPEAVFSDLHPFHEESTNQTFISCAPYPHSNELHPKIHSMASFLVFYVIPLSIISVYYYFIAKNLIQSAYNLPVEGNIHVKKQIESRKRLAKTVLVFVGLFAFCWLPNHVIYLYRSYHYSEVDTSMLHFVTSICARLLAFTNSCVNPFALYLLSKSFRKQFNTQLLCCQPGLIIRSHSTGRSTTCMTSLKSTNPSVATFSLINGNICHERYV

[4] = target: T4, 168 GPCRs (Homo sapiens, UniProt O43603)
T4 construct: host or cells: PathHunter cell lines
T4 sequence (O43603 1-387): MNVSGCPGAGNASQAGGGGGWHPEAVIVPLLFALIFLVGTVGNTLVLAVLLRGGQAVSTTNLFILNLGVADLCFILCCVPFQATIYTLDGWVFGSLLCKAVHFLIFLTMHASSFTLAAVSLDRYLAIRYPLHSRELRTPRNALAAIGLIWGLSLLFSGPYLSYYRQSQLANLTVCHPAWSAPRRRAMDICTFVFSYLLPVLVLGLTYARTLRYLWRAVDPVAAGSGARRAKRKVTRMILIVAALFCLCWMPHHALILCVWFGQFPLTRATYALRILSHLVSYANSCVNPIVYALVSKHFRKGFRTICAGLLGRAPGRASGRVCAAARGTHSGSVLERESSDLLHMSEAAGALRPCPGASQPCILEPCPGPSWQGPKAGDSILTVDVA

[5] = target: T5, 168 GPCRs (Homo sapiens, UniProt O43614)
T5 construct: host or cells: PathHunter cell lines
T5 sequence (O43614 1-444): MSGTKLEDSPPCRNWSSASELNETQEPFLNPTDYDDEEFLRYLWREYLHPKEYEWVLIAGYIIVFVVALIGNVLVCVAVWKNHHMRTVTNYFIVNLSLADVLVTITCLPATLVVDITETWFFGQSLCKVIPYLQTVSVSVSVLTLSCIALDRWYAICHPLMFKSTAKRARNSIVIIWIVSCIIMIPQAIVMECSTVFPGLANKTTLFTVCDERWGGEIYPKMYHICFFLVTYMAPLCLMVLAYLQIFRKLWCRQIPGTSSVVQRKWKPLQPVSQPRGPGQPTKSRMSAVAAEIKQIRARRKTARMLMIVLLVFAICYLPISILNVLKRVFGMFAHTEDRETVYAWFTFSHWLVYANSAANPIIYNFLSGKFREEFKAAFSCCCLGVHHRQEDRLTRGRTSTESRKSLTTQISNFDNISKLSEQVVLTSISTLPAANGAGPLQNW

[6] = target: T6, 168 GPCRs (Homo sapiens, UniProt P32239); details: CCKBR
T6 construct: host or cells: PathHunter cell lines
T6 sequence (P32239 1-447): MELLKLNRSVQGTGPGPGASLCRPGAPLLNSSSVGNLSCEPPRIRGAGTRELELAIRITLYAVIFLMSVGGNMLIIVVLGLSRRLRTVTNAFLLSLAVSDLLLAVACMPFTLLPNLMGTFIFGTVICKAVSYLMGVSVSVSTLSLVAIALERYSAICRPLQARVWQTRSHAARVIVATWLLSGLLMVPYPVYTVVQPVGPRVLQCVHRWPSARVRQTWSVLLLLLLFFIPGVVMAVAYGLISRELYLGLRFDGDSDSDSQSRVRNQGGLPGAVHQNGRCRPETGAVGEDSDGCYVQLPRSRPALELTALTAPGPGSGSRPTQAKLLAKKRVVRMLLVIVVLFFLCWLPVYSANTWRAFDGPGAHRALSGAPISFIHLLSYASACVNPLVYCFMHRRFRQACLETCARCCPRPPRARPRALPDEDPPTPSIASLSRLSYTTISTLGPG

Structure (SMILES) | % Agonist Activity ([1]; 1 uM) [%] | % Antagonist Activity ([1]; 1 uM) [%] | % Agonist Activity ([1]; 10 uM) [%] | % Antagonist Activity ([1]; 10 uM) [%] | % Agonist Activity ([2]; Conc 1 uM) [%] | % Antagonist Activity ([2]; Conc 1 uM) [%] | % Agonist Activity ([2]; Conc 10 uM) [%] | % Antagonist Activity ([2]; Conc 10 uM) [%] | % Agonist Activity ([3]; 1 uM) [%] | % Antagonist Activity ([3]; 1 uM) [%] | % Agonist Activity ([3]; 10 uM) [%] | % Antagonist Activity ([3]; 10 uM) [%] | % Agonist Activity ([4]; GALR2, 1 uM) [%] | % Antagonist Activity ([4]; GALR2, 1 uM) [%] | % Agonist Activity ([4]; GALR2, 10 uM) [%] | % Antagonist Activity ([4]; GALR2, 10 uM) [%] | % Agonist Activity ([5]; HCRTR2, 1 uM) [%] | % Antagonist Activity ([5]; HCRTR2, 1 uM) [%] | % Agonist Activity ([5]; HCRTR2, 10 uM) [%] | % Antagonist Activity ([5]; HCRTR2, 10 uM) [%] | other results
CNC(C)Cc1ccc2c(c1)OCO2 (stereo not drawn) [MDMA, 3,4-Methylenedioxy methamphetamine, reference compound] | 0 | 3.4 | -5 | 1.1 | 2.3 | 18.8 | 8.6 | 22.7 | -0.3 | 1.9 | -0.6 | 1.8 | -2.9 | -5.1 | -3 | -7.3 | -0.3 | 5.9 | -0.1 | -3.5 | % Agonist Activity ([6]; 1 uM): 2.3%; % Antagonist Activity ([6]; 1 uM): 3.2%; % Agonist Activity ([6]; 10 uM): 1.2%; % Antagonist Activity ([6]; 10 uM): 5.2%
CNC(C)C(=O)c1ccc2c(c1)OCO2 (stereo not drawn) [methylone] | -1.5 | 5.4 | -1 | 5.4 | -4.4 | 12.4 | -2.3 | -21.5 | 0 | 0.7 | -0.1 | -1.4 | 3.4 | 7 | 1.9 | 1.5 | 0.2 | 6.4 | 0.2 | 2.4 | % Agonist Activity ([6]; 1 uM): -1%; % Antagonist Activity ([6]; 1 uM): -1.1%; % Agonist Activity ([6]; 10 uM): 1.5%; % Antagonist Activity ([6]; 10 uM): -2.4%
